Earlier results in PMC11676896, “Protective Action of Cannabidiol on Tiamulin Toxicity in Humans—In Vitro Study” (International Journal of Molecular Sciences, 2024).

Experiments:
CYP1A1 = tested on: CYP1A1; design: method as in PMID 26187180; details: cited from earlier work
[1] = design: method as in previous studies; details: CBD 1.56 and 3.125 µg/mL; ref previous studies; cited from earlier work

C=C(C)[C@@H]1CCC(C)=C[C@H]1c1c(O)cc(CCCCC)cc1O [CBD, cannabidiol]
induction of CYP1A1 expression (CYP1A1): strongest inducer of CYP1A1 expression | cell viability with CBD alone [1]: did not show a decrease in cell viability
